From PMC7118906, “Esculetin Inhibits Cancer Cell Glycolysis by Binding Tumor PGK2, GPD2, and GPI” (Frontiers in Pharmacology, 2020)

What was measured:
Format in all cases: binding
[1] = biological target: glucose-6-phosphate isomerase (GPI) (Homo sapiens, UniProt P06744); test: microscale thermophoresis with labeled purchased protein (Abcam ab208311)
[2] = biological target: T1, glycerol-3-phosphate dehydrogenase (GPD2) (Homo sapiens, UniProt P43304); test: microscale thermophoresis with labeled purchased protein (Abcam ab153790)
T1 sequence (P43304 43-727): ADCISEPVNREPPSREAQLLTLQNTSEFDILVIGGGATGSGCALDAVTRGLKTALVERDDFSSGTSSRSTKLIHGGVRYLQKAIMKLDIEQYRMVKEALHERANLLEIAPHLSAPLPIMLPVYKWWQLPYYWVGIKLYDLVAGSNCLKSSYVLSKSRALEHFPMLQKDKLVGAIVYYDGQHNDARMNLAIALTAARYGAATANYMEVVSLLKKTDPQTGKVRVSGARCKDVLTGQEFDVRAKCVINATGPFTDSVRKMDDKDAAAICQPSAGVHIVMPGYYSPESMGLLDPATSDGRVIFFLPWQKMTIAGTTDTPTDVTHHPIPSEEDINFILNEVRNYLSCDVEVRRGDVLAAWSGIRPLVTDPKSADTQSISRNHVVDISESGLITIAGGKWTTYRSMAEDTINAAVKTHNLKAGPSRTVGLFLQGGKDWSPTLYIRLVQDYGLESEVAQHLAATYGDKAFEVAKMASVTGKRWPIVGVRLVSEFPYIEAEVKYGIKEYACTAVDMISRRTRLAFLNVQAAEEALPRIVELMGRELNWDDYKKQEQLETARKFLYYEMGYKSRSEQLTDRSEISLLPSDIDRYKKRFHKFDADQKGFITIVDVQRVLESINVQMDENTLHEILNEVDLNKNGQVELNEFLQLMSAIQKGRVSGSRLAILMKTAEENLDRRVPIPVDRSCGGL

[3] = biological target: T2, phosphoglycerate kinase 2 (PGK2) (Homo sapiens, UniProt P07205); test: microscale thermophoresis with labeled purchased protein (Abcam ab123166)
T2 sequence (P07205 2-417): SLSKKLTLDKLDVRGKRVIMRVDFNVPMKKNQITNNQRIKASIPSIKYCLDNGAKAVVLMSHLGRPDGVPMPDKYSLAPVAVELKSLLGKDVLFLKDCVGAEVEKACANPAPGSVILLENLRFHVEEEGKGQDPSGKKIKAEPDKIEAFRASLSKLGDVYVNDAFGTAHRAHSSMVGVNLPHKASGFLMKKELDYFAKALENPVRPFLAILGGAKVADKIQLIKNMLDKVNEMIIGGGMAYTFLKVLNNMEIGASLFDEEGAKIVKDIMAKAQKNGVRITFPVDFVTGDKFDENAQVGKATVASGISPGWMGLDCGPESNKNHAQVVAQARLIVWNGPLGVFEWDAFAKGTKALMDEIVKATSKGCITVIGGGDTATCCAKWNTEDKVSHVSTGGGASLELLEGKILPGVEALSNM

`O=c1ccc2cc(O)c(O)cc2o1` [Esculetin] showed a Kd [1] of 0.127 ± 0.0224 µM, a Kd [2] of 0.666 ± 0.196 µM and a Kd [3] of 0.161 ± 0.0633 µM.
